The results in this text go back to the supplement of paper PMC10307832.

What all share (test): relative viability (nuclei count vs DMSO), 5 days (fraction); higher = more cells survive
Compound in the assay “Axitinib + Alpelisib”: CNC(=O)c1ccccc1Sc1ccc2c(/C=C/c3ccccn3)n[nH]c2c1 [Axitinib] + Cc1nc(NC(=O)N2CCC[C@H]2C(N)=O)sc1-c1ccnc(C(C)(C)C(F)(F)F)c1 [Alpelisib] (partner 2 µM)
The method in brief:
(§1)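 Relative viability divides the nuclei count in treated wells by that in vehicle wells. Lung cancer cell lines were seeded in 1536-well plates, dosed by pin tool the next day, and fixed and stained after 5 days in one step with final 0.05% Triton X-100, 1% formaldehyde and 1 ug/ml Hoechst. Dosing was a single drug or a fixed anchor-drug dose plus five library-drug doses (not always all listed) in √10 steps, and values are medians of duplicate plates imaged at 4×.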

Compound in the assay “Bemcentinib + Decitabine”: Nc1nc(Nc2ccc3c(c2)CC[C@@H](N2CCCC2)CC3)nn1-c1cc2c(nn1)-c1ccccc1CCC2 [Bemcentinib] + Nc1ncn([C@H]2C[C@H](O)[C@@H](CO)O2)c(=O)n1 [Decitabine] (partner 2 µM)
The method in brief:
as §1

Compound in assay [1]: CC1=CC=C(C=C1)C(=O)CN2C3=C(CCCC3)SC2=N [Pifithrin_alpha] + C[C@@H](Oc1cc(-c2cnn(C3CCNCC3)c2)cnc1N)c1c(Cl)ccc(F)c1Cl [Crizotinib] (partner 1 µM)
The method in brief:
as §1

Compound in the assay “Bemcentinib + Trametinib”: Nc1nc(Nc2ccc3c(c2)CC[C@@H](N2CCCC2)CC3)nn1-c1cc2c(nn1)-c1ccccc1CCC2 [Bemcentinib] + CC(=O)Nc1cccc(-n2c(=O)n(C3CC3)c(=O)c3c(Nc4ccc(I)cc4F)n(C)c(=O)c(C)c32)c1 [Trametinib] (partner 0.02 µM)
In a few lines: as §1

For the cell line NCI-H650, the relative viability in the assay with Axitinib + Alpelisib (first compound 0.005 µM) was 1.19; with Axitinib + Alpelisib (first compound 0.01581 µM), 1.13; with Axitinib + Alpelisib (first compound 0.05 µM) it was 0.868; with Axitinib + Alpelisib (first compound 0.1581 µM) it was 1.02; with Axitinib + Alpelisib (first compound 0.5 µM), 1.24; in the assay with Bemcentinib + Decitabine (first compound 0.04 µM) it was 0.269. The relative viability with Bemcentinib + Decitabine (first compound 0.1265 µM) came out at 0.301; with Bemcentinib + Decitabine (first compound 0.4 µM), 0.282; with Bemcentinib + Decitabine (first compound 1.265 µM), 0.294; in the assay with Bemcentinib + Decitabine (first compound 4 µM), 0.347; in assay [1] (first compound 3.162 µM), 0.671; in assay [1] (first compound 10 µM), 0.659. Besides, the relative viability in assay [1] (first compound 31.62 µM) was 0.434; in assay [1] (first compound 100 µM), 0.743; with Bemcentinib + Trametinib (first compound 0.04 µM) it was 1.08; with Bemcentinib + Trametinib (first compound 0.1265 µM), 0.993; with Bemcentinib + Trametinib (first compound 0.4 µM), 0.963; in the assay with Bemcentinib + Trametinib (first compound 1.265 µM) it was 0.947. Moreover, the relative viability with Bemcentinib + Trametinib (first compound 4 µM) amounted to 0.966.
